Experiments:
MDA-MB-231 [1] = assay: Effective concentration of compound without DFMO tested in vitro for ability to inhibit polyamine transport and growth of MDA-MB-231 breast carcinoma cell line; Cytotoxic; assay type: functional, cell-based; conditions: Homo sapiens
MDA-MB-231 [2] = assay: Effective concentration of compound with DFMO tested in vitro for ability to inhibit polyamine transport and growth of MDA-MB-231 breast carcinoma cell line; assay type: functional, cell-based; conditions: Homo sapiens
[3] = Inhibition of SPD uptake by polyamine transporter of MDA-MB-231 breast carcinoma cells; assay type: cell-based
MDA-MB-231 [4] = assay: Michaelis-Menten constant of compound was determined at MDA-MB-231 cell line mediated by polyamine transporter; assay type: cell-based; conditions: Homo sapiens
MDA-MB-231 [5] = assay: Effective concentration of compound with DFMO tested in vitro for ability to inhibit polyamine transport and growth of MDA-MB-231 breast carcinoma cell line; Cytotoxic; assay type: functional, cell-based; conditions: Homo sapiens

Row | Compound | EC50 (MDA-MB-231 [2]) | EC50 (MDA-MB-231 [1]) | Ki [3] | Km (MDA-MB-231 [4]) | EC50 (MDA-MB-231 [5])
1 | NCCCNCCCCNCCCNC(=O)CCCCC(=O)NCCCNCCCCNCCCN | 2.2 µM |  | 0.07 µM |  | 
2 | NCCCNCCCCNCCCN |  |  |  | 2 µM | 
3 | NCCCNCCCCNCCCNC(=O)CCC(=O)NCCCNCCCCNCCCN | 2 µM |  | 0.03 µM |  | 
4 | NCCCCNCCCN |  |  |  | 0.11 µM | 
5 | CCCCCCC(=O)NCCCNCCCCNCCCN |  |  | 0.28 µM |  | 63 µM
6 | NCCCCN |  |  |  | 1.28 µM | 
7 | NCCCNCCCCNCCCNC(=O)CCCC(=O)NCCCNCCCCNCCCN | 1.6 µM |  | 0.06 µM |  | 
8 | CC(=O)NCCCNCCCCNCCCN | > 1000 µM |  | 0.18 µM |  | 

More lines, main results first:

Row | EC50 (MDA-MB-231 [2]) | Compound | EC50 (MDA-MB-231 [1]) | Ki [3] | Km (MDA-MB-231 [4]) | EC50 (MDA-MB-231 [5])
9 | 9 µM | NCCCNCCCCNCCCNC(=O)CCCCCCCCC(=O)NCCCNCCCCNCCCN | 240 µM | 0.08 µM |  | 
10 | 230 µM | NCCCNCCCCNCCCNS(=O)(=O)c1ccc2cc(S(=O)(=O)NCCCNCCCCNCCCN)ccc2c1 |  | 0.06 µM |  | 
11 | 6 µM | NCCCNCCCCNCCCNC(=O)CCCCCC(=O)NCCCNCCCCNCCCN |  | 0.04 µM |  | 
12 | 3.7 µM | NCCCNCCCCNCCCNC(=O)CCCCCCC(=O)NCCCNCCCCNCCCN |  | 0.06 µM |  | 
13 | 8 µM | NCCCNCCCCNCCCNC(=O)CCCCCCCCCCC(=O)NCCCNCCCCNCCCN | 53 µM | 0.03 µM |  | 
14 | 3 µM | NCCCNCCCCNCCCNC(=O)CCCCCCCC(=O)NCCCNCCCCNCCCN |  | 0.07 µM |  | 
15 | > 300 µM | NCCCNCCCCNCCCNC(=O)CC12CC3CC(C1)CC(CC(=O)NCCCNCCCCNCCCN)(C3)C2 |  | 0.06 µM |  | 

Source: ChEMBL document CHEMBL1136018, “Synthesis of bis-spermine dimers that are potent polyamine transport inhibitors” (Bioorg Med Chem Lett, 2002)
